Measurements as given in US12171229B2, “Heteroaryl-triazole and heteroaryl-tetrazole compounds as pesticides” (BAYER AKTIENGESELLSCHAFT, priority 2018, dated 2024).

Tests used:
Type in all cases: in vivo
[1] = system: Spodoptera frugiperda; assay: Spodoptera frugiperda spray test; conditions: 168 h, after 7 days, larvae on maize leaf sections
Experimental: Spodoptera frugiperda—Spray Test
(§1) To produce a suitable preparation of active compound, 1 part by weight of active compound is mixed with the stated amount of solvents and is diluted with water, containing an emulsifier concentration of 1000 ppm, to the desired concentration. Further test concentrations are prepared by dilution with emulsifier containing water.
Maize (Zea mays) leaf sections are sprayed with a preparation of the active ingredient of the desired concentration. Once dry, the leaf sections are infested with fall armyworm larvae (Spodoptera frugiperda).
After 7 days mortality in % is determined. 100% means all caterpillars have been killed and 0% means none of the caterpillars have been killed.

[2] = system: Diabrotica balteata; assay: Diabrotica balteata spray test; conditions: after 7 days, larvae on wheat seeds; for pest or weed control at 80 µg/disc, 250 g/ha / pest or weed control at 160 µg/disc, 500 g/ha: Diabrotica balteata, in Triticum aestivum, 168 h, read-out: efficacy (seedlings grown up); for pest or weed control at 80 µg/disc, 250 g/ha: 80 μg/well (=250 g/ha)
Experimental: Diabrotica balteata—Spray Test [table] To produce a suitable preparation of active compound, 1 part by weight of active compound is mixed with the stated amount of solvent, and the concentrate is diluted with water, containing an emulsifier concentration of 1000 ppm, to the desired concentration. Further test concentrations are prepared by dilution with emulsifier containing water. Soaked wheat seeds (Triticum aestivum) are placed in a multiple well plate filled with agar and some water and are incubated for 1 day to germinate (5 seeds per well). The germinated wheat seeds are sprayed with a test solution containing the desired concentration of the active ingredient. Afterwards each unit is infected with 10-20 larvae of the banded cucumber beetle (Diabrotica balteata). After 7 days efficacy in % is determined. 100% means all the seedlings have grown up like in the untreated, uninfected control; 0% means none of the seedlings have grown.

[3] = system: Boophilus microplus; assay: Boophilus microplus injection test; conditions: 20 μg/animal injected into the abdomen, adult engorged female ticks, egg deposition after 7 days; for pest or weed control at 0.02 mg: Rhipicephalus microplus, 168 h, read-out: efficacy (infertile eggs)
Experimental: Boophilus Microplus—Injection Test Solvent: dimethyl sulfoxide To produce a suitable preparation of active compound, 10 mg of active compound are dissolved in 0.5 ml solvent, and the concentrate is diluted with solvent to the desired concentration. Five adult engorged female ticks (Boophilus microplus) are injected with 1 μl compound solution into the abdomen. The ticks are transferred into replica plates and incubated in a climate chamber. After 7 days egg deposition of fertile eggs is monitored. Eggs where fertility is not visible are stored in a climate chamber till hatching after about 42 days. An efficacy of 100% means all eggs are infertile; 0% means all eggs are fertile.

[4] = system: Ctenocephalides felis; assay: Ctenocephalides felis oral test; conditions: 48 h, 100 ppm in cattle blood, after 2 days, adult unfed cat fleas
Experimental: Ctenocephalides Felis—Oral Test
Solvent: dimethyl sulfoxide
To produce a suitable preparation of active compound, 10 mg of active compound are dissolved in 0.5 ml solvent, and the concentrate is diluted with cattle blood to the desired concentration.
Approximately 20 adult unfed cat fleas (Ctenocephalides felis) are placed in flea chambers. The blood chamber, sealed with parafilm on the bottom, are filled with cattle blood supplied with compound solution and placed on the gauze covered top of the flea chamber, so that the fleas are able to suck the blood. The blood chamber is heated to 37° C. whereas the flea chamber is kept at room temperature.
After 2 days mortality in % is determined. 100% means all the fleas have been killed; 0% means none of the fleas have been killed.

[5] = system: Nezara viridula; assay: Nezara viridula spray test; conditions: 96 h, after 4 days, larvae on barley plants
Experimental: Nezara viridula—Spray Test
as §1, with “solvent,” for “solvents”, “and the concentrate” for “and”
Barley plants (Hordeum vulgare) infested with larvae of the southern green stink bug (Nezara viridula) are sprayed with a test solution containing the desired concentration of the active ingredient.
After 4 days mortality in % is determined. 100% means all the stink bugs have been killed: 0% means none of the stink bugs have been killed.

SMILES	mortality at 500 g/ha [1] [%]	pest or weed control at 80 µg/disc, 250 g/ha [2] [%]	pest or weed control at 160 µg/disc, 500 g/ha ([2]; 160 μg/well (=500 g/ha)) [%]	pest or weed control at 0.02 mg [3] [%]	mortality at 100 ppm [4] [%]	other results
CC[C@H](NC(=O)c1cc(C(F)(F)F)cc(C(F)(F)F)c1)c1ncnn1-c1ccc(C#N)cn1 [Example I-068]	100	100	100	100	–	mortality at 100 g/ha [1]: 100%
C[C@H](NC(=O)c1cc(Cl)cc(C(F)(F)F)c1)c1ncnn1-c1cccc(OCC(F)(F)F)n1 [Example I-059]	–	–	100	–	–	–
COc1cc(C(=O)N[C@@H](C)c2ncnn2-c2ccc(C#N)cn2)cc(C(F)(F)F)c1 [Example I-092]	100	100	100	–	100	mortality at 100 g/ha [1]: 100%; mortality at 500 g/ha [5]: 90%
CC[C@H](NC(=O)c1cc(Cl)cc(OC(F)(F)F)c1)c1ncnn1-c1ccc(NC(=O)C2CC2)cn1 [Example I-096]	–	100	100	–	100	–
C[C@H](NC(=O)c1cc(Cl)cc(Cl)c1)c1ncnn1-c1nccs1 [Example I-108]	83	–	100	–	–	–
C[C@H](NC(=O)c1cc(Cl)cc(C(F)(F)F)c1)c1ncnn1-c1nnc(C(F)(F)F)s1 [Example I-017]	–	–	–	90	–	–
C[C@H](NC(=O)c1cc(Cl)cc(C(F)(F)F)c1)c1ncnn1-c1nc2ccccc2o1 [Example I-057]	–	100	80	80	90	–
C[C@H](NC(=O)c1cc(Cl)cc(C(F)(F)F)c1)c1ncnn1-c1ccc(OCC(F)(F)C(F)(F)F)cn1 [Example I-060]	100	80	–	–	100	mortality at 100 g/ha [1]: 100%
C[C@H](NC(=O)c1cc(Cl)cc(C(F)(F)F)c1)c1ncnn1-c1cn(C)nc1C(F)(F)F [Example I-044]	–	100	80	100	100	–
CC(NC(=O)c1cc(Cl)cc(C(F)(F)F)c1)c1ncnn1C1=NCCS1 (centres unmarked) [Example I-075]	–	100	100	–	100	–
COC(=O)c1ccc(-n2ncnc2[C@H](C)NC(=O)c2cc(Cl)cc(C(F)(F)F)c2)nc1 [Example I-031]	–	–	100	100	–	–
C[C@H](NC(=O)c1cc(Cl)cc(C(F)(F)F)c1)c1ncnn1-c1nc(C(F)(F)F)cs1 [Example I-084]	–	100	100	–	–	–
C[C@H](NC(=O)c1cc(Cl)cc(OC(F)(F)F)c1)c1ncnn1-c1ccc(NC(=O)C2(Cl)CC2)cn1 [Example I-113]	100	–	80	–	–	mortality at 100 g/ha [1]: 80%; mortality at 500 g/ha [5]: 100%
C[C@H](NC(=O)c1cc(Cl)cc(C(F)(F)F)c1)c1ncnn1-c1ccc(NC(=S)CC2CC2)cn1 [Example I-097]	100	100	100	–	100	–
C[C@H](NC(=O)c1cc(Cl)cc(C(F)(F)F)c1)c1ncnn1-c1cn(C)nc1C(F)F [Example I-032]	–	100	100	100	100	–
C[C@H](NC(=O)c1cc(Cl)cc(C(F)(F)F)c1)c1ncnn1-c1nnc(-c2ccc(F)cc2)s1 [Example I-023]	–	–	–	–	–	mortality at 100 g/ha ([5]; 100 g/ha): 100%

SMILES	mortality at 500 g/ha [1] [%]	pest or weed control at 80 µg/disc, 250 g/ha [2] [%]	pest or weed control at 160 µg/disc, 500 g/ha ([2]; 160 μg/well (=500 g/ha)) [%]	pest or weed control at 0.02 mg [3] [%]	mortality at 100 ppm [4] [%]	other results
C[C@H](NC(=O)c1cncc(Br)c1)c1ncnn1-c1ccc(C#N)cn1 [Example I-053]	100	100	100	100	100	–
C[C@H](NC(=O)c1cc(Cl)cc(C(F)(F)F)c1)c1ncnn1-c1nc(C(F)F)c(Cl)s1 [Example I-022]	83	100	100	100	–	–
CC(c1ncnn1-c1cnc2ccccc2n1)N(CC1CC1)C(=O)c1cc(Cl)cc(C(F)(F)F)c1 (centres unmarked) [Example I-004]	–	–	100	–	–	–
C[C@H](NC(=O)c1cc(Cl)cc(C(F)(F)F)c1)c1ncnn1-c1ccc(-n2cncn2)cn1 [Example I-087]	100	–	–	–	–	mortality at 100 g/ha [1]: 100%
CC[C@H](NC(=O)c1cc(Cl)cc(OC(F)(F)F)c1)c1ncnn1-c1ccc(NC(C)=O)cn1 [Example I-095]	–	–	–	–	100	–
C[C@H](NC(=O)c1cc(Cl)cc(C(F)(F)F)c1)c1ncnn1C1CCS(=O)(=O)C1 (single isomer, unassigned) [Example I-025]	–	–	–	–	–	efficacy (seedlings grown up) ([2]; 160 μg/well (=500 g/ha)): 80%; efficacy (infertile eggs) [3]: 100%
C[C@H](NC(=O)c1cc(Cl)cc(C(F)(F)F)c1)c1ncnn1-c1ccc(OC(F)F)cn1 [Example I-029]	100	100	100	–	–	mortality at 100 g/ha [1]: 100%; mortality at 500 g/ha [5]: 100%
C[C@H](NC(=O)c1cc(Cl)cc(C(F)(F)F)c1)c1ncnn1-c1cccc(C#N)n1 [Example I-055]	–	–	–	100	–	–
C[C@H](NC(=O)c1cc(Cl)cc(C(F)(F)F)c1)c1ncnn1-c1ccc(-n2ccnc2)cn1 [Example I-086]	83	100	–	–	100	–
C[C@H](NC(=O)c1cc(Cl)cc(C(F)(F)F)c1)c1ncnn1-c1cccc(S(C)(=O)=O)n1 [Example I-064]	–	–	–	80	–	–
COc1cc(C(=O)N[C@@H](C)c2ncnn2-c2ncc(F)cc2F)cc(C(F)(F)F)c1 [Example I-102]	–	100	–	–	–	mortality at 500 g/ha [5]: 100%
CC(C)C(=S)Nc1ccc(-n2ncnc2[C@H](C)NC(=O)c2cc(Cl)cc(C(F)(F)F)c2)nc1 [Example I-099]	100	100	100	–	100	–
C[C@H](NC(=O)c1cc(Cl)cc(C(F)(F)F)c1)c1ncnn1-c1nc(-c2ccccc2F)cs1 [Example I-043]	–	–	100	–	–	–
COc1cc(C(=O)N[C@@H](C)c2ncnn2-c2nccs2)cc(C(F)(F)F)c1 [Example I-093]	100	100	100	–	100	mortality at 500 g/ha [5]: 100%
C[C@H](NC(=O)c1cc(F)cc(C(F)(F)F)c1)c1ncnn1-c1nc2ccccc2o1 [Example I-058]	–	–	–	100	100	–
C[C@H](NC(=O)c1cc(Cl)cc(C(F)(F)F)c1)c1ncnn1-c1ncc(Cl)s1 [Example I-090]	100	100	100	–	100	mortality at 100 g/ha [1]: 100%; mortality at 500 g/ha [5]: 100%
